Source: PubChem BioAssay (NCI)
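Interpolation was linear, between the two tested concentrations surrounding the appropriate level; five concentrations were tested over 48 hours in 96-well plates. The concentration for 50% growth inhibition is given as GI50. At the TGI there is no net growth.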

Columns and labels:
Test in all cases: inhibition of tumour cell growth, NCI panel, 48 h
[1] = tested on: UACC-62 melanoma
[2] = tested on: 786-0 renal
[3] = tested on: LOX IMVI melanoma
[4] = tested on: OVCAR-3 ovarian
[5] = tested on: SNB-19 CNS
[6] = tested on: T-47D breast
[7] = tested on: HCT-15 colon
[8] = tested on: HOP-92 NSCLC
[9] = tested on: MALME-3M melanoma
[10] = tested on: UO-31 renal

SMILES	GI50 [1]	TGI [1]	GI50 [2]	TGI [2]	GI50 [3]	TGI [3]	GI50 [4]	TGI [4]	GI50 [5]	TGI [5]	GI50 [6]	TGI [6]	GI50 [7]	TGI [7]	GI50 [8]	TGI [8]	GI50 [9]	TGI [9]	GI50 [10]	TGI [10]
COc1ccc(Cc2cnc(NC(=O)c3ccc4c(c3)OCCO4)s2)cc1	0.0292 µM	40.6 µM	0.0493 µM	> 74.3 µM	0.0456 µM	> 100 µM	0.0221 µM	0.0658 µM	0.0523 µM	43.2 µM	2.95 µM	> 100 µM	0.0167 µM	> 100 µM	3.62 µM	> 76.6 µM	1.52 µM	> 61.6 µM	1.2 µM	> 100 µM
Nc1nc(N)nc(CCCc2nc(N)nc(N)n2)n1	–	> 100 µM	–	> 100 µM	–	> 100 µM	–	> 100 µM	–	> 100 µM	–	> 100 µM	–	> 100 µM	–	> 100 µM	–	> 100 µM	–	> 100 µM
COC(=O)CCC1=C(CC(=O)OC)C(C)=N/C1=C\c1[nH]c(-c2ccc[nH]2)cc1OC	3.09 µM	11.5 µM	2.73 µM	10.2 µM	0.788 µM	3.11 µM	2.43 µM	10.2 µM	11.6 µM	31.1 µM	3.55 µM	16.3 µM	2.04 µM	15.2 µM	1.83 µM	5.9 µM	6.8 µM	23.3 µM	3.44 µM	14.7 µM
CC1=C(C(=O)Nc2ccccc2)C(c2ccc(C3C(C(=O)Nc4ccccc4)=C(C)NC(C)=C3C(=O)Nc3ccccc3)cc2)C(C(=O)Nc2ccccc2)=C(C)N1	–	4.09 µM	–	8.92 µM	–	3.24 µM	–	14.5 µM	–	20.5 µM	–	16.2 µM	–	9 µM	–	9.78 µM	–	4.33 µM	–	23.1 µM
O=C(NO)c1ccc(CN(c2cnccn2)c2cnccn2)cc1	6.71 µM	28.5 µM	15.7 µM	35 µM	3.69 µM	18.1 µM	11.7 µM	30 µM	17.7 µM	72.5 µM	9.55 µM	38.1 µM	18.5 µM	46.8 µM	16.4 µM	35.1 µM	7.9 µM	23.8 µM	12.9 µM	26.4 µM
S=C1SC2=Nc3ccccc3CN2C2=NCCN12	72.5 µM	> 100 µM	> 100 µM	> 100 µM	25.9 µM	83.2 µM	80.8 µM	> 100 µM	> 100 µM	> 100 µM	78.5 µM	> 100 µM	33 µM	> 100 µM	> 100 µM	> 100 µM	49.6 µM	> 100 µM	> 100 µM	> 100 µM
COc1ccc(/C=C(/c2ccccc2)[N+](=O)[O-])cc1	1.5 µM	3.17 µM	1.58 µM	2.96 µM	1.47 µM	2.89 µM	1.36 µM	2.69 µM	1.65 µM	3.17 µM	1.2 µM	4.5 µM	0.446 µM	1.86 µM	1.08 µM	2.48 µM	1.42 µM	2.94 µM	1.13 µM	2.35 µM
CCCCCCCCCCN1CCC(N2CCCCC2)CC1	1.76 µM	3.4 µM	2.82 µM	15.9 µM	1.23 µM	2.47 µM	4.64 µM	16.6 µM	3.95 µM	14.5 µM	1.53 µM	3.58 µM	1.38 µM	3.73 µM	0.763 µM	8.5 µM	1.97 µM	3.98 µM	1 µM	2.8 µM
Nc1ccccc1SC1CC(=O)N(c2ccc(Cl)c(Cl)c2)C1=O (stereo unspecified)	14 µM	> 100 µM	27.3 µM	90.3 µM	31.7 µM	> 100 µM	11.6 µM	44 µM	31.6 µM	> 100 µM	12.6 µM	> 100 µM	28.6 µM	> 100 µM	14.9 µM	42.1 µM	15.6 µM	> 100 µM	11.7 µM	45 µM
O=C(O)C12CC3(C(=O)O)CC(C(=O)O)(CC(C(=O)O)(C1)C3=O)C2=O	–	> 100 µM	–	> 100 µM	–	> 100 µM	–	> 100 µM	–	> 100 µM	–	> 100 µM	–	> 100 µM	–	> 100 µM	–	> 100 µM	–	> 100 µM
CCN(CC)CCNC(=O)c1ccc(C)c(OCc2ccccc2)c1[N+](=O)[O-]	–	39.6 µM	–	> 74.6 µM	–	49.9 µM	–	> 75.8 µM	–	> 100 µM	–	58 µM	–	47.4 µM	–	83.2 µM	–	31.2 µM	–	50.5 µM
CC/C=C/C/C=C/C/C=C/C/C=C/C/C=C/C/C=C/CCC(=O)Nc1ccn([C@@H]2O[C@H](CO)[C@@H](O)C2(F)F)c(=O)n1	0.0499 µM	11.9 µM	0.0141 µM	25.5 µM	0.0512 µM	0.832 µM	4.79 µM	25.5 µM	0.0278 µM	26.6 µM	0.174 µM	54.4 µM	1.82 µM	41.3 µM	0.652 µM	30.5 µM	9.33 µM	24.2 µM	0.0486 µM	4.28 µM
C=C1CC[C@@H](C(C)C)C[C@@H]2[C@H]([C@H](O)C[C@]2(C)O)[C@@]2(C)CC[C@@H]1O2	–	–	18.8 µM	33.4 µM	14.7 µM	27.9 µM	14.8 µM	29.5 µM	19.2 µM	33.2 µM	14.9 µM	33.1 µM	14.6 µM	27.7 µM	6.84 µM	20.7 µM	14.1 µM	28.6 µM	17.3 µM	31.1 µM
O=C(OCC(OC(=O)c1ccccc1)C(OC(=O)c1ccccc1)C(OC(=O)c1ccccc1)c1cnn(-c2ccccc2)n1)c1ccccc1 (stereo unspecified)	–	> 100 µM	–	> 100 µM	–	> 100 µM	–	> 100 µM	–	> 100 µM	–	> 100 µM	–	> 100 µM	–	> 100 µM	–	> 100 µM	–	> 100 µM
NC(=S)N/N=C/c1cc(-c2cccc(N)c2)ccn1	1.38 µM	> 24.5 µM	1.29 µM	6.34 µM	2.09 µM	34.6 µM	1.67 µM	23.2 µM	4.24 µM	> 100 µM	1.34 µM	> 100 µM	2.71 µM	> 100 µM	0.314 µM	40 µM	1.31 µM	24 µM	0.907 µM	8.69 µM
CCCCCc1ccc(S(=O)(=O)Nc2cc(-c3csc(NC(C)=O)n3)ccc2N2CCN(C)CC2)cc1	3.83 µM	8.04 µM	4.9 µM	11.1 µM	0.648 µM	1.35 µM	4.92 µM	9.64 µM	5.49 µM	10.4 µM	4.8 µM	11.7 µM	1.08 µM	4.49 µM	3.68 µM	8.84 µM	4.05 µM	9.11 µM	3.53 µM	7.57 µM
O=C(NCc1ccc(S(=O)(=O)c2cc(F)cc(F)c2)cc1)c1ccc2nccn2c1	> 51 µM	> 100 µM	30.7 µM	> 100 µM	> 33.7 µM	> 66.8 µM	1.32 µM	> 100 µM	2.56 µM	> 100 µM	11.7 µM	> 100 µM	0.0472 µM	> 100 µM	22.5 µM	> 100 µM	> 41.6 µM	> 65 µM	> 44.8 µM	> 100 µM
O=C(Nc1ccc(Cl)c(Cl)c1)Nc1ccccc1O	5.12 µM	19.8 µM	25.2 µM	75.1 µM	4.58 µM	24.2 µM	3.24 µM	13.5 µM	9.92 µM	44.3 µM	4.11 µM	43.6 µM	4.46 µM	23.9 µM	6.46 µM	27.3 µM	4.82 µM	20.3 µM	2.48 µM	18.4 µM
O=C1C(Cl)=C(Nc2ccccc2O)C(=O)N1Cc1ccccc1	19.1 µM	46.4 µM	16.8 µM	30.4 µM	16.5 µM	30.1 µM	18 µM	31.9 µM	35.8 µM	> 100 µM	23.3 µM	52.7 µM	19.5 µM	39.9 µM	21.4 µM	48.3 µM	22.8 µM	40.4 µM	15.9 µM	29.3 µM
Cc1nn(C(=O)c2ccc(Cl)cc2)c2c1C(c1ccc(O)cc1)SC(N)=N2 (stereo unspecified)	–	> 10 µM	–	> 10 µM	–	> 10 µM	–	> 10 µM	–	> 10 µM	–	> 10 µM	–	> 10 µM	–	> 10 µM	–	> 10 µM	–	–
Cc1ncc([N+](=O)[O-])n1CCNS(=O)(=O)CCCn1ncnc1[N+](=O)[O-]	–	> 100 µM	–	> 100 µM	–	> 100 µM	–	> 100 µM	–	–	–	> 100 µM	–	> 100 µM	–	> 100 µM	–	> 100 µM	–	> 100 µM
